Laboratory results as given in patent EP1288226A1, “Modification of the expression levels of Toll-like receptor familiy members for influencing neurodegeneration and neuroprotection in the human central nervous system” (NEDERLANDSE ORGANISATIE VOOR …, priority 2001, dated 2003).

Legend:
Assay in all cases: TLR expression in primary human microglia after stimulation, semi-quantitative RT-PCR
Assay type in all cases: cell-based
Conditions in all cases: aggregated peptide 5 µM, 6 h or 24 h
[1] = system: TLR2
Description: (§1) Primary human microglia, oligodendrocytes and astrocytes used in this study were isolated from the human white matter samples obtained from the patients listed in Table 1, as previously described (Bajramovic et al., 2000a and 2000b; De Groot et al., 2000). Briefly, brain tissues dissected from corpus callosum or subcortical white matter were collected and blood vessels were removed. After a 20-min digestion in 0.25 % (w/v) trypsine (Sigma, St. Louis, MO) and 0.1 mg/ml DNAse (Boehringer Mannheim, Mannheim, Germany) the cell suspension was gently triturated and washed with DMEM/HAM-F10 medium containing 10 % (v/v) FCS and antibiotic supplements. After passage through a 100-µm filter, myelin was removed by Percoll gradient centrifugation. Erythrocytes were lysed by a 15-min incubation on ice with 155 mM NH4Cl, 1 mM KHCO3, 0.2 % (w/v) BSA.
(§2) Primary cultures of microglia, astrocytes and oligodendrocytes were set up in DMEM/HAM-F10 medium containing 10 % (v/v) FCS and antibiotic supplements. Recombinant human granulocyte-macrophage colony stimulating factor (rhGM-CSF, PeproTech Inc, USA) was added to microglial cultures every 3 days at a final concentration of […]. Cells were analyzed for TLR expression after 10-14 days following the start of the culture.
(§3) Total cellular RNA was isolated from human glia cells using RNAZol™B (Campro scientific, Veenendaal, The Netherlands) and 2.5 µg RNA was reverse transcribed, using reverse transcription system (Promega, Madison, USA). PCR amplifications were performed on 1 µl copy DNA and 49 µl PCR mix (40 µl milliQ + 5 µl MgCl2 (see below for concentration) + 1 µl 10 mM dNTP mix + 1 µl 20 pmol/µl primer + 1 µl 20 pmol/µl anti sense primer and 0.2 µl taq polymerase). For β-actin, TLR1, TLR2, TLR3, TLR5, TLR6, TLR7 and TLR 9, 22 mM MgCl2 was used, for TLR4, 15 mM MgCl2 and for TLR8, 30 mM MgCl2. Amounts of TLR-encoding mRNA for each TLR were calculated by comparing the yield of each amplicon after 40 cycles to that for β-actin, and by determining the amounts of β-actin encoding mRNA in each sample by competitive quantitative RT-PCR as described previously (Bajramovic et al., 2000a; Bajramovic et al., 2000b).
(§4) Amyloid-β-protein-derived peptide 1-42 (Bachem, Bubendorf, Switzerland) was dissolved in water at 1 mM and kept at 37°C for 1 week to allow for aggregation to occur. The aggregated peptide was added to cultured microglia at a final concentration of 5 µM and TLR expression was determined as described above after varying periods of incubation time. As another CNS-derived stimulant, human recombinant alpha B-crystallin (prepared by TNO Prevention and Health, Leiden) was used at a final concentration of 15 µg/mL.

[2] = system: other TLR
Description: as §1, §2, §3, §4

[3] = system: TLR3
Description: as §1, §2, §3, §4

[4] = listed as Amyloid β protein-derived peptide 1-42
[5] = listed as amyloid β-protein derived peptide 1-42

Substance: amyloid β protein-derived peptide 1-42: Amyloid-β-protein-derived peptide 1-42 (Bachem), dissolved in water at 1 mM and kept at 37°C for 1 week to allow aggregation
- levels of TLR2-encoding mRNA [1]: rapid mild inductive effect
- levels of TLR2-encoding mRNA [1, 4]: elevated expression
- levels of TLR2-encoding mRNA [1, 5]: strong effects
- expression of mRNA encoding other TLR [2]: not influenced
- expression of mRNA encoding other TLR [2, 4]: not affecting
- levels of TLR3-encoding mRNA [3]: stronger inductive effects
- levels of TLR3-encoding mRNA [3, 4]: elevated expression
- levels of TLR3-encoding mRNA [3, 5]: strong effects
